# Starred links: 1 amine or outer side, 2 acyl side, 3 side chain; linkers in the order of their positions; H or OH if unused. Positions of bridges follow the written chain, without caps; N, C: chain ends. Non-standard residues stand in square brackets, D forms with d. Residues, ends and D or L forms follow the SMILES beside them. Groups on a side chain read outwards from the residue. *: point of attachment. Trp(1-Me) = Cn1cc(C[C@H](N)C(=O)O)c2ccccc21; C18 diacid = O=C(O)CCCCCCCCCCCCCCCCC(=O)*; C16 diacid = O=C(O)CCCCCCCCCCCCCCC(=O)*; γGlu = O=C(O)[C@H](CCC(=O)[*:2])N[*:1]; AEEA = NCCOCCOCC(=O)O; Sar = CNCC(=O)O
# Test system: classical complement pathway
# Assay: In vitro haemolysis assay (inhibition of classical complement pathway)
# Assay type: cell-based, human
# Conditions: Table 3; human serum, sensitized sheep red blood cells; read-out: IC50[nM], in vitro analysis of inhibition of hemolysis
# How it was run: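 Serially diluted compound (9 points) was preincubated 15 min at room temperature with diluted human serum, titrated per batch to give 70-90% maximal haemolysis, in Tris/casein buffer pH 7.4 with Mg2+/Ca2+. Antibody-sensitized sheep erythrocytes were then added for 30 min at 37° C, and the reaction was stopped with EDTA. Haemolysis was read at A405, with IC50 from 4PL fit.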
row,SMILES,IC50 [nM]
1,CC[C@H](C)[C@@H]1NC(=O)[C@@H](NC(=O)[C@H](Cc2ccc(O)cc2)NC(=O)[C@H](CCC(=O)O)NC(=O)[C@H](CO)NC(C)=O)CSSC[C@@H](C(=O)N(C)CC(=O)N[C@@H](CCC(=O)O)C(=O)NCC(=O)N[C@@H](C)C(=O)N[C@@H](CCCCNC(=O)CC[C@H](NC(=O)CNC(=O)CC[C@H](NC(=O)CCCCCCCCCCCCCCCCC(=O)O)C(=O)O)C(=O)O)C(N)=O)NC(=O)[C@H](CCCNC(=N)N)NC(=O)[C@H](Cc2c[nH]cn2)NC(=O)[C@H](CCC(=O)O)NC(=O)CNC(=O)[C@H](Cc2c[nH]c3ccccc23)NC(=O)[C@H](CC(=O)O)NC(=O)[C@H](CCC(N)=O)NC(=O)[C@H](Cc2cn(C)c3ccccc23)NC1=O [Compound 112] (Ac-SEYCI[Trp(1-Me)]QDWGEHRC[Sar]EGAK([γGlu-Gly-γGlu-C18 diacid])-NH2; disulfide 4-14),< 500
2,CC[C@H](C)[C@@H]1NC(=O)[C@@H](NC(=O)[C@H](Cc2ccc(O)cc2)NC(=O)[C@H](CCC(=O)O)NC(=O)CNC(=O)[C@H](CO)NC(=O)[C@H](C)NC(C)=O)CSSC[C@@H](C(=O)N(C)CC(=O)N[C@@H](CCC(=O)O)C(=O)NCC(=O)N[C@@H](CCC(=O)O)C(=O)N[C@@H](CCCCNC(=O)CC[C@H](NC(=O)CNC(=O)CC[C@H](NC(=O)CCCCCCCCCCCCCCCCC(=O)O)C(=O)O)C(=O)O)C(N)=O)NC(=O)[C@H](CCCNC(=N)N)NC(=O)[C@H](Cc2c[nH]cn2)NC(=O)[C@H](CCC(=O)O)NC(=O)CNC(=O)[C@H](Cc2c[nH]c3ccccc23)NC(=O)[C@H](CC(=O)O)NC(=O)[C@H](CCC(N)=O)NC(=O)[C@H](Cc2cn(C)c3ccccc23)NC1=O [Compound 113] (Ac-ASGEYCI[Trp(1-Me)]QDWGEHRC[Sar]EGEK([γGlu-Gly-γGlu-C18 diacid])-NH2; disulfide 6-16),< 500
3,CC[C@H](C)[C@@H]1NC(=O)[C@@H](NC(=O)[C@H](Cc2ccc(O)cc2)NC(=O)[C@H](CCC(=O)O)NC(=O)[C@H](CO)NC(C)=O)CSSC[C@@H](C(=O)N(C)CC(=O)N[C@@H](CCC(=O)O)C(=O)NCC(=O)N[C@@H](CCC(=O)O)C(=O)NCCOCCOCC(=O)NCCOCCOCC(=O)N[C@@H](CCCCNC(=O)CC[C@H](NC(=O)CNC(=O)CC[C@H](NC(=O)CCCCCCCCCCCCCCCCC(=O)O)C(=O)O)C(=O)O)C(N)=O)NC(=O)[C@H](CCCNC(=N)N)NC(=O)[C@H](Cc2c[nH]cn2)NC(=O)[C@H](CCC(=O)O)NC(=O)CNC(=O)[C@H](Cc2c[nH]c3ccccc23)NC(=O)[C@H](CC(=O)O)NC(=O)[C@H](CCC(N)=O)NC(=O)[C@H](Cc2cn(C)c3ccccc23)NC1=O [Compound 117] (Ac-SEYCI[Trp(1-Me)]QDWGEHRC[Sar]EGE[AEEA][AEEA]K([γGlu-Gly-γGlu-C18 diacid])-NH2; disulfide 4-14),< 250
4,CC[C@H](C)[C@@H]1NC(=O)[C@@H](NC(=O)[C@H](Cc2ccc(O)cc2)NC(=O)[C@H](CCC(=O)O)NC(=O)[C@H](CO)NC(C)=O)CSSC[C@@H](C(=O)N(C)CC(=O)N[C@@H](CCC(=O)O)C(=O)NCC(=O)N[C@@H](CCC(=O)O)C(=O)NCCOCCOCC(=O)NCCOCCOCC(=O)N[C@@H](CCCCNC(=O)CC[C@H](NC(=O)CNC(=O)CC[C@H](NC(=O)CCCCCCCCCCCCCCCCC(=O)O)C(=O)O)C(=O)O)C(N)=O)NC(=O)[C@H](CCCNC(=N)N)NC(=O)[C@H](Cc2c[nH]cn2)NC(=O)[C@H](CCC(=O)O)NC(=O)CNC(=O)[C@H](Cc2c[nH]c3ccccc23)NC(=O)[C@H](CCC(=O)O)NC(=O)[C@H](CCC(N)=O)NC(=O)[C@H](Cc2cn(C)c3ccccc23)NC1=O [Compound 125] (Ac-SEYCI[Trp(1-Me)]QEWGEHRC[Sar]EGE[AEEA][AEEA]K([γGlu-Gly-γGlu-C18 diacid])-NH2; disulfide 4-14),< 500
5,CC[C@H](C)[C@@H]1NC(=O)[C@@H](NC(=O)[C@H](Cc2ccccc2)NC(=O)[C@H](CCC(=O)O)NC(=O)[C@H](CO)NC(C)=O)CSSC[C@@H](C(=O)N(C)CC(=O)N[C@@H](CCC(=O)O)C(=O)NCC(=O)N[C@@H](CCC(=O)O)C(=O)NCCOCCOCC(=O)NCCOCCOCC(=O)N[C@@H](CCCCNC(=O)CC[C@H](NC(=O)CNC(=O)CC[C@H](NC(=O)CCCCCCCCCCCCCCC(=O)O)C(=O)O)C(=O)O)C(N)=O)NC(=O)[C@H](CCCNC(=N)N)NC(=O)[C@H](Cc2c[nH]cn2)NC(=O)[C@H](CCC(=O)O)NC(=O)CNC(=O)[C@H](Cc2c[nH]c3ccccc23)NC(=O)[C@H](CC(=O)O)NC(=O)[C@H](CCC(N)=O)NC(=O)[C@H](Cc2cn(C)c3ccccc23)NC1=O [Compound 127] (Ac-SEFCI[Trp(1-Me)]QDWGEHRC[Sar]EGE[AEEA][AEEA]K([γGlu-Gly-γGlu-C16 diacid])-NH2; disulfide 4-14),< 100
6,CC[C@H](C)[C@@H]1NC(=O)[C@@H](NC(=O)[C@H](Cc2ccccc2)NC(=O)[C@H](CCC(=O)O)NC(=O)[C@H](CO)NC(C)=O)CSSC[C@@H](C(=O)N(C)CC(=O)N[C@@H](CCC(=O)O)C(=O)NCC(=O)N[C@@H](CCC(=O)O)C(=O)NCC(=O)NCC(=O)NCC(=O)N[C@@H](CCCCNC(=O)CC[C@H](NC(=O)CNC(=O)CC[C@H](NC(=O)CCCCCCCCCCCCCCCCC(=O)O)C(=O)O)C(=O)O)C(N)=O)NC(=O)[C@H](CCCNC(=N)N)NC(=O)[C@H](Cc2c[nH]cn2)NC(=O)[C@H](CCC(=O)O)NC(=O)CNC(=O)[C@H](Cc2c[nH]c3ccccc23)NC(=O)[C@H](CC(=O)O)NC(=O)[C@H](CCC(N)=O)NC(=O)[C@H](Cc2cn(C)c3ccccc23)NC1=O [Compound 129] (Ac-SEFCI[Trp(1-Me)]QDWGEHRC[Sar]EGEGGGK([γGlu-Gly-γGlu-C18 diacid])-NH2; disulfide 4-14),< 100
7,CC[C@H](C)[C@@H]1NC(=O)[C@@H](NC(=O)[C@H](Cc2ccccc2)NC(=O)[C@H](CCC(=O)O)NC(=O)[C@H](CO)NC(C)=O)CSSC[C@@H](C(=O)N[C@H](C(=O)N[C@@H](CCC(=O)O)C(=O)NCC(=O)N[C@@H](CCC(=O)O)C(=O)NCC(=O)NCC(=O)NCC(=O)N[C@@H](CCCCNC(=O)CC[C@H](NC(=O)CNC(=O)CC[C@H](NC(=O)CCCCCCCCCCCCCCCCC(=O)O)C(=O)O)C(=O)O)C(N)=O)[C@@H](C)O)NC(=O)[C@H](CCCNC(=N)N)NC(=O)[C@H](Cc2c[nH]cn2)NC(=O)[C@H](CCC(=O)O)NC(=O)CNC(=O)[C@H](Cc2c[nH]c3ccccc23)NC(=O)[C@H](CC(=O)O)NC(=O)[C@H](CCC(N)=O)NC(=O)[C@H](Cc2cn(C)c3ccccc23)NC1=O [Compound 130] (Ac-SEFCI[Trp(1-Me)]QDWGEHRCTEGEGGGK([γGlu-Gly-γGlu-C18 diacid])-NH2; disulfide 4-14),< 100
8,CC[C@H](C)[C@@H]1NC(=O)[C@@H](NC(=O)[C@H](Cc2ccccc2)NC(=O)[C@H](CCC(=O)O)NC(=O)[C@H](CO)NC(C)=O)CSSC[C@@H](C(=O)N[C@H](C(=O)N[C@@H](CCC(=O)O)C(=O)NCC(=O)N[C@@H](CCC(=O)O)C(=O)NCC(=O)NCC(=O)NCC(=O)N[C@@H](CCCCNC(=O)CC[C@H](NC(=O)CNC(=O)CC[C@H](NC(=O)CCCCCCCCCCCCCCC(=O)O)C(=O)O)C(=O)O)C(N)=O)[C@@H](C)O)NC(=O)[C@H](CCCNC(=N)N)NC(=O)[C@H](Cc2c[nH]cn2)NC(=O)[C@H](CCC(=O)O)NC(=O)CNC(=O)[C@H](Cc2c[nH]c3ccccc23)NC(=O)[C@H](CC(=O)O)NC(=O)[C@H](CCC(N)=O)NC(=O)[C@H](Cc2cn(C)c3ccccc23)NC1=O [Compound 131] (Ac-SEFCI[Trp(1-Me)]QDWGEHRCTEGEGGGK([γGlu-Gly-γGlu-C16 diacid])-NH2; disulfide 4-14),< 100
9,CC[C@H](C)[C@@H]1NC(=O)[C@@H](NC(=O)[C@H](Cc2ccccc2)NC(=O)[C@H](CCC(=O)O)NC(=O)[C@H](CO)NC(C)=O)CSSC[C@@H](C(=O)N(C)CC(=O)N[C@@H](CCC(=O)O)C(=O)N[C@@H](CCCCN)C(=O)N[C@@H](CCC(=O)NCC(=O)NCC(=O)NCC(=O)N[C@@H](CCCCNC(=O)CC[C@H](NC(=O)CNC(=O)CC[C@H](NC(=O)CCCCCCCCCCCCCCCCC(=O)O)C(=O)O)C(=O)O)C(N)=O)C(=O)O)NC(=O)[C@H](CCCNC(=N)N)NC(=O)[C@H](Cc2c[nH]cn2)NC(=O)[C@H](CCC(=O)O)NC(=O)CNC(=O)[C@H](Cc2c[nH]c3ccccc23)NC(=O)[C@H](CC(=O)O)NC(=O)[C@H](CCC(N)=O)NC(=O)[C@H](Cc2cn(C)c3ccccc23)NC1=O [Compound 132] (Ac-SEFCI[Trp(1-Me)]QDWGEHRC[Sar]EK[γGlu]GGGK([γGlu-Gly-γGlu-C18 diacid])-NH2; disulfide 4-14),< 100
10,CC[C@H](C)[C@@H]1NC(=O)[C@@H](NC(=O)[C@H](Cc2ccccc2)NC(=O)[C@H](CCC(=O)O)NC(=O)[C@H](CO)NC(C)=O)CSSC[C@@H](C(=O)N[C@H](C(=O)N[C@@H](CCC(=O)O)C(=O)N[C@@H](CCCCN)C(=O)N[C@@H](CCC(=O)NCC(=O)NCC(=O)NCC(=O)N[C@@H](CCCCNC(=O)CC[C@H](NC(=O)CNC(=O)CC[C@H](NC(=O)CCCCCCCCCCCCCCCCC(=O)O)C(=O)O)C(=O)O)C(N)=O)C(=O)O)[C@@H](C)O)NC(=O)[C@H](CCCNC(=N)N)NC(=O)[C@H](Cc2c[nH]cn2)NC(=O)[C@H](CCC(=O)O)NC(=O)CNC(=O)[C@H](Cc2c[nH]c3ccccc23)NC(=O)[C@H](CC(=O)O)NC(=O)[C@H](CCC(N)=O)NC(=O)[C@H](Cc2cn(C)c3ccccc23)NC1=O [Compound 133] (Ac-SEFCI[Trp(1-Me)]QDWGEHRCTEK[γGlu]GGGK([γGlu-Gly-γGlu-C18 diacid])-NH2; disulfide 4-14),< 100
11,CC[C@H](C)[C@@H]1NC(=O)[C@@H](NC(=O)[C@H](Cc2ccccc2)NC(=O)[C@H](CCC(=O)O)NC(C)=O)CSSC[C@@H](C(=O)N[C@@H](CCC(=O)O)C(=O)NCC(=O)N[C@@H](CCC(=O)O)C(=O)N[C@@H](CCCCNC(=O)CC[C@H](NC(=O)CNC(=O)CC[C@H](NC(=O)CCCCCCCCCCCCCCCCC(=O)O)C(=O)O)C(=O)O)C(N)=O)NC(=O)[C@H](CCCNC(=N)N)NC(=O)[C@H](Cc2c[nH]cn2)NC(=O)[C@H](CCC(=O)O)NC(=O)CNC(=O)[C@H](Cc2c[nH]c3ccccc23)NC(=O)[C@H](CC(=O)O)NC(=O)[C@H](CCC(N)=O)NC(=O)[C@H](Cc2cn(C)c3ccccc23)NC1=O [Compound 134] (Ac-EFCI[Trp(1-Me)]QDWGEHRCEGEK([γGlu-Gly-γGlu-C18 diacid])-NH2; disulfide 3-13),< 100

# — patent US20220306695A1, “COMPSTATIN ANALOGUES AND THEIR MEDICAL USES” (priority 2019, published 2022)
